Molecules are shown by their SMILES. Where “and” joins values, the source holds several entries; their conditions need not be identical. Equal values may be shown once.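 Values below derive from 48-hour exposures of cells grown in 96-well plates, with endpoints linearly interpolated between the two concentrations bracketing the appropriate inhibition level. GI50 is the concentration that inhibits growth by half. TGI: total growth inhibition.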 Where a SMILES comes first, the peptide text is derived from it. [ ]: non-standard residue; d: D form. The star is where a group is joined. ξ: configuration not given here. ξPhe(4-NO2) = NC(Cc1ccc([N+](=O)[O-])cc1)C(=O)O; Boc = CC(C)(C)OC(=O)* Some results are limits rather than exact numbers.

This is an account of results in PubChem BioAssay (NCI).

Common to all, as to assay: inhibition of tumour cell growth, NCI panel, 48 h
Experiment [1] has as its system DU-145 prostate.
Experiment [2] has as its system IGROV1 ovarian.
Experiment [3] deals with SW-620 colon.
Experiment [4] deals with MCF7 breast.
For experiment [5], the system named is SK-MEL-2 melanoma.
The subject of experiment [6] is UO-31 renal.
Experiment [7] concerns CCRF-CEM leukemia.
Experiment [8] relates to SF-539 CNS.
Experiment [9] deals with OVCAR-5 ovarian.
Experiment [10] has as its system HCC-2998 colon.
Experiment [11] concerns SNB-75 CNS.
Experiment [12] relates to OVCAR-4 ovarian.
The subject of experiment [13] is 786-0 renal.

For the compound `O=C1c2cc([N+](=O)[O-])sc2C(=O)c2cc([N+](=O)[O-])sc21`, the TGI is 23.9 µM in [1]; 3.07 µM in [2]; 3.37 µM in [3]; 9.92 µM in experiment [4]; 21.4 µM in experiment [5]; 7.68 µM in [6]. The TGI was over 19.8 µM in [7]; 8.51 µM in experiment [8]; 15.5 µM in experiment [9]; 8.56 µM in experiment [10]; 26.3 µM in experiment [11]; 8.71 µM in experiment [12]. In addition, the TGI in experiment [13] worked out at 6.78 µM.
Consider `COC(=O)/C=C/c1cnc2c(c1)oc(=O)n2C`, for which the TGI in [1], in experiment [2], in [3], in experiment [4], in [5] and in experiment [6] was over 100 µM in each case. In addition, the TGI in experiment [7], in experiment [8], in experiment [9], in experiment [10], in experiment [11] and in experiment [12] was over 100 µM in each case. Moreover, the TGI in [13] was over 100 µM.
As to `CCSc1nc(C)nc2c1sc1nc3ccccc3n12`, the TGI in experiment [1], in experiment [2], in experiment [3], in [4], in experiment [5] and in [6] was over 100 µM throughout. The TGI in [7], in [8], in experiment [9], in [10], in experiment [11] and in [12] was over 100 µM throughout. For the same compound, in experiment [13], the TGI is over 100 µM.
On to `CN(/N=C/c1ccccc1C(=O)O)C1=NCCCCN1`, for which the TGI in experiment [1], in [2], in [3], in experiment [4], in experiment [5] and in experiment [6] was over 100 µM throughout. In addition, the TGI in experiment [7], in [8], in experiment [9], in experiment [10], in experiment [11] and in [12] was over 100 µM each time. The compound further showed a TGI in [13] of over 100 µM.
For the compound `COc1cc(C(=O)N(C(=S)OC23CC4CC(CC(C4)C2)C3)c2ccccc2)cc(OC)c1OC`, the TGI in experiment [1] was over 100 µM; in [3], over 100 µM; in [4], over 100 µM; in [5], 32.1 µM; in [6], 79 µM; in [7], 36 µM. The TGI is over 100 µM in experiment [8]; over 100 µM in experiment [9]; 61.4 µM in experiment [10]; over 100 µM in experiment [11]; over 100 µM in experiment [12]; over 100 µM in experiment [13].
As to `COc1ccc(Br)c(C=Nc2cccc3cc(OC)c(OC)cc23)c1`, the TGI was over 100 µM in [1]; over 93.9 µM in [2]; 51.1 µM in experiment [3]; over 100 µM in experiment [4]; over 100 µM in experiment [5]; 97.5 µM in experiment [6]. Moreover, the TGI is over 40.5 µM in experiment [7]; 12.4 µM in experiment [8]; over 100 µM in experiment [9]; over 100 µM in experiment [10]; over 100 µM in experiment [11]; over 100 µM in experiment [12]. The same compound displayed a TGI in experiment [13] of over 100 µM.
As to `N#CC1=C(S)N(C2OC(CO)C(O)C(O)C2O)C(c2ccccc2)=CC1c1cccs1` (configuration not stated), the TGI in experiment [1] was over 10 µM; in [2] it was 45.7 µM; in [3], 65 µM; in [4] it was 54.9 µM; in [5] it was 50.2 µM; in experiment [6], over 100 µM. Moreover, the TGI is over 100 µM in experiment [7]; 38.7 µM in [8]; over 100 µM in [9]; 44.8 µM in experiment [10]; 51.8 µM in experiment [11]; over 100 µM in experiment [12]. The same compound showed a TGI in experiment [13] of 35.7 µM.
`CCNC(=O)CNC(=O)C(Cc1ccc([N+](=O)[O-])cc1)NC(=O)OC(C)(C)C` (configuration not stated) (Boc-[ξPhe(4-NO2)]-Gly-NHEt): the TGI in experiment [1], in [2], in [3], in experiment [4], in experiment [6] and in experiment [7] was over 100 µM throughout. In addition, the TGI in [9], in experiment [10], in experiment [11], in [12] and in experiment [13] was over 100 µM each time.
As for `COc1ccc2c(c1)OC1c3ccccc3OCC21` (configuration not stated), the TGI in [1], in [2], in [3], in experiment [4], in [5] and in experiment [6] was over 100 µM in each case. In addition, the TGI in experiment [7], in experiment [8], in experiment [9], in experiment [10], in experiment [11] and in [12] was over 100 µM throughout. In experiment [13], this compound gave a TGI of over 100 µM.
For the compound `OC1(C2(c3ccc(Cl)cc3)CCCC2)c2ccccc2C2=NCCN21` (configuration not stated), the TGI in [1] is 16.3 µM; in experiment [2], 26.8 µM; in experiment [3] it was 48.6 µM; in experiment [4] it was 32.7 µM; in [6] it was 24.1 µM; in experiment [7] it was 38.5 µM. Also, the TGI in [9] was determined as 29.5 µM; in experiment [10] it was 4 µM; in experiment [11], 12.7 µM; in experiment [12] it was 28.8 µM; in [13] it was 27.3 µM.
As to `CC(C)C[C@H](NC(=O)CCc1cccc2ccccc12)B(O)O`, the TGI in [1] was over 65.6 µM; in experiment [2], 23.8 µM; in experiment [3], 3.26 µM; in experiment [4], over 52 µM; in [5], 6.74 µM; in experiment [6], 8.73 µM. Further, the TGI was […] in experiment [7]; 1.21 µM in [8]; 6.72 µM in experiment [9]; 2.62 µM in [10]; over 22.6 µM in experiment [11]; 29 µM in experiment [12]. The TGI in experiment [13] was 28.3 µM.
In the case of `CC1(C)CC[C@]2(C(=O)O)CC[C@]3(C)C(=CC[C@@H]4[C@@]5(C)CC[C@H](OC6OC(CO)C(O)C(O)C6O)C(C)(C)[C@@H]5CC[C@]43C)[C@@H]2C1` (some centres not stated), the TGI in [1] stood at 4.49 µM; in experiment [2] it was 3.06 µM; in experiment [3] it was 3.51 µM; in experiment [4], 3.91 µM; in [5], 3.15 µM; in [6], 3.1 µM. Besides, the TGI in experiment [7] worked out at 6.36 µM; in [9] it was 4.12 µM; in experiment [10] it was 3.18 µM; in experiment [11], 5.33 µM; in experiment [12], 3 µM; in experiment [13], 3.23 µM.
On to `COc1ccc(C(=O)N(Cc2cccnc2)C(=S)N(Cc2cccnc2)C(=O)c2ccc(OC)cc2)cc1`, for which the TGI in experiment [1], in [3], in experiment [4], in experiment [5], in [7] and in experiment [8] was over 100 µM in each case. In addition, the TGI in experiment [9] was over 100 µM; in experiment [10], over 100 µM; in experiment [11], 42.9 µM; in experiment [12], over 100 µM; in experiment [13], over 100 µM.
Regarding `COc1ccc2[nH]c3c(C)c4ncccc4c(C)c3c2c1`, the TGI in experiment [1] was over 10 µM; in [2], over 10 µM; in [3], 4.26 µM; in [4], 4.81 µM; in experiment [5] it was over 10 µM; in experiment [7], over 10 µM. Moreover, the TGI in [8] was over 10 µM; in experiment [9] it was over 10 µM; in [10], over 10 µM; in experiment [11], over 10 µM; in experiment [12], over 10 µM; in experiment [13], 2.85 µM.
Turning to `C=COC(=O)N1C2CCCC(Cl)(C(C)=O)C1CC2` (configuration not stated), the TGI in experiment [1], in experiment [2], in experiment [3], in [4], in experiment [5] and in [6] was over 100 µM each time. The TGI in experiment [7], in experiment [9], in experiment [10], in [11], in experiment [12] and in [13] was over 100 µM throughout.
Consider `O=C(N[C@@H](Cc1ccccc1)B(O)O)[C@H](Cc1cccc2ccccc12)NC(=O)N1CCOCC1`, for which the TGI in [1] is 0.403 µM and 0.527 µM; in [2] it was 0.07 µM and 0.0754 µM; in [3] it was 0.0125 µM and 0.0101 µM; in [4], 0.352 µM; in experiment [6], 0.482 µM; in experiment [7], 0.0022 µM. The TGI was 0.000769 µM in experiment [8]; 0.0155 µM in experiment [9]; 0.00339 µM in experiment [10]; 0.0558 µM in [11]; 0.0301 µM and 0.204 µM in experiment [12]; 0.271 µM and 0.12 µM in experiment [13]. The GI50 in experiment [6] was 0.123 µM.
As to `CCOC(=O)c1csc(-c2nc(CCNC(=O)c3ccccc3)sc2Cl)n1`, the TGI in experiment [1], in experiment [2], in experiment [3], in experiment [4], in [6] and in [7] was over 100 µM in each case. Besides, the TGI in experiment [8], in [9], in [10], in [11] and in experiment [13] was over 100 µM each time.
Regarding `CN(C(=O)c1ccc(Cl)cc1)C(=S)N1CCN(c2ccccc2)CC1`, the TGI in [1], in experiment [2], in experiment [3], in experiment [4], in experiment [5] and in experiment [6] was over 100 µM each time. The TGI in experiment [7], in experiment [9], in [10], in experiment [11], in experiment [12] and in experiment [13] was over 100 µM throughout.
For `COc1ccc(NC(=S)Nc2c(C)n(C)n(-c3ccccc3)c2=O)cc1`, the TGI in [1], in [2], in experiment [3], in [4], in experiment [6] and in experiment [7] was over 100 µM in each case. Besides, the TGI in experiment [8], in experiment [9], in experiment [10], in experiment [11] and in experiment [13] was over 100 µM each time.
Regarding `Cc1ccc(N2C3=C(CC4=C2CC(C)(C)CC4=O)C(=O)CC(C)(C)C3)cc1`, the TGI in experiment [1], in [2], in experiment [3], in experiment [4], in experiment [6] and in [7] was over 100 µM in each case. Further, the TGI in experiment [8] is over 100 µM; in experiment [9], over 100 µM; in experiment [10], over 100 µM; in [11], 82.6 µM; in experiment [12], over 100 µM; in experiment [13], over 100 µM.
For `COc1ncc(C#CC(=O)c2ccccc2)c(OC)n1`, the TGI is 19.7 µM in experiment [1]; 7.49 µM in [2]; 4.84 µM in experiment [3]; 1.96 µM in experiment [4]; 13.4 µM in experiment [5]; 5.44 µM in [6]. Also, the TGI was 2.07 µM in [7]; 12.8 µM in experiment [9]; 13.3 µM in experiment [10]; 14 µM in experiment [11]; 12.9 µM in experiment [12]; 4.2 µM in experiment [13].
Turning to `CCNC1=C(NC(=O)CCl)C(=O)c2ccccc2C1=O`, the TGI in experiment [1] is over 10 µM; in [2], over 10 µM; in experiment [3], 74.6 µM; in [4], 47.4 µM; in experiment [7], 58.1 µM; in [8], 44.5 µM. Besides, the TGI in experiment [9] was 34.2 µM; in experiment [10], over 10 µM; in experiment [11], over 10 µM; in experiment [12], 30.7 µM; in experiment [13], over 100 µM.
